Data from US10202361B2, “Pyridazinones as herbicides” (E I DU PONT DE NEMOURS AND COMPANY, priority 2014, dated 2019).

Columns and labels:
Type in all cases: in vivo
[1] = test system: barnyardgrass (Echinochloa crus-galli); test: Test A pre-/postemergence greenhouse herbicide test; conditions: 0 to 100 scale (0 no effect, 100 complete control), approx. 10 d
Source text: (§1) Seeds of plant species selected from barnyardgrass (Echinochloa crus-galli), crabgrass, Large (large crabgrass, Digitaria sanguinalis), foxtail, giant (giant foxtail, Setaria faberii), morningglory (Ipomoea spp.), pigweed (Amaranthus retroflexus), velvetleaf (Abutilon theophrasti), wheat (Triticum aestivum), and corn (Zea mays) were planted into a blend of loam soil and sand and treated preemergence with a directed soil spray using test chemicals formulated in a non-phytotoxic solvent mixture which included a surfactant. At the same time these species were also treated with postemergence applications of test chemicals formulated in the same manner.
(§2) Plants ranged in height from 2 to 10 cm and were in the one- to two-leaf stage for the postemergence treatment. Treated plants and untreated controls were maintained in a greenhouse for approximately 10 d, after which time all treated plants were compared to untreated controls and visually evaluated for injury. Plant response ratings, summarized in Table A, are based on a 0 to 100 scale where 0 is no effect and 100 is complete control. A dash (-) response means no test result.

[2] = test system: corn (Zea mays); test: as above; conditions: 0 to 100 scale (0 no effect, 100 complete control), approx. 10 d
Source text: as §1, §2

[3] = test system: crabgrass, Large (large crabgrass, Digitaria sanguinalis); test: as above; conditions: 0 to 100 scale (0 no effect, 100 complete control), approx. 10 d
Source text: as §1, §2

[4] = test system: foxtail, giant (giant foxtail, Setaria faberii); test: as above; conditions: 0 to 100 scale (0 no effect, 100 complete control), approx. 10 d
Source text: as §1, §2

[5] = test system: morningglory (Ipomoea spp.); test: as above; conditions: 0 to 100 scale (0 no effect, 100 complete control), approx. 10 d
Source text: as §1, §2

[6] = test system: pigweed (Amaranthus retroflexus); test: as above; conditions: 0 to 100 scale (0 no effect, 100 complete control), approx. 10 d
Source text: as §1, §2

[7] = test system: velvetleaf (Abutilon theophrasti); test: as above; conditions: 0 to 100 scale (0 no effect, 100 complete control), approx. 10 d
Source text: as §1, §2

[8] = test system: wheat (Triticum aestivum); test: as above; conditions: 0 to 100 scale (0 no effect, 100 complete control), approx. 10 d
Source text: as §1, §2

[9] = test system: barnyardgrass (Echinochloa crus-galli); test: Test B flooded paddy test; conditions: Flood, scale of 0 to 100, 0 is no effect, 100 is complete control, 13 to 15 d
Experimental: (§3) Plant species in the flooded paddy test selected from rice (Oryza sativa), small-flower sedge, umbrella (small-flower umbrella sedge, Cyperus difformis), ducksalad (Heteranthera limosa), and barnyardgrass (Echinochloa crus-galli) were grown to the 2-leaf stage for testing. At time of treatment, test pots were flooded to 3 cm above the soil surface, treated by application of test compounds directly to the paddy water, and then maintained at that water depth for the duration of the test. Treated plants and controls were maintained in a greenhouse for 13 to 15 d, after which time all species were compared to controls and visually evaluated. Plant response ratings, summarized in Table B, are based on a scale of 0 to 100 where 0 is no effect and 100 is complete control. A dash (-) response means no test result.

[10] = test system: ducksalad (Heteranthera limosa); test: Test B flooded paddy test; conditions: Flood, scale of 0 to 100, 0 is no effect, 100 is complete control, 13 to 15 d
Experimental: as §3

[11] = test system: rice (Oryza sativa); test: Test B flooded paddy test; conditions: Flood, scale of 0 to 100, 0 is no effect, 100 is complete control, 13 to 15 d
Experimental: as §3

[12] = test system: sedge, umbrella (small-flower umbrella sedge, Cyperus difformis); test: Test B flooded paddy test; conditions: Flood, scale of 0 to 100, 0 is no effect, 100 is complete control, 13 to 15 d
Experimental: as §3

| SMILES | Plant response rating, Barnyardgrass ([1]; Postemergence, 125 g ai/ha) | Plant response rating, Barnyardgrass ([1]; Postemergence, 500 g ai/ha) | Plant response rating, Corn ([2]; Postemergence, 125 g ai/ha) | Plant response rating, Corn ([2]; Postemergence, 500 g ai/ha) | Plant response rating, Corn ([2]; Preemergence, 125 g ai/ha) | Plant response rating, Corn ([2]; Preemergence, 500 g ai/ha) | Plant response rating, Crabgrass, Large ([3]; Postemergence, 125 g ai/ha) | Plant response rating, Crabgrass, Large ([3]; Postemergence, 500 g ai/ha) | Plant response rating, Crabgrass, Large ([3]; Preemergence, 125 g ai/ha) | Plant response rating, Crabgrass, Large ([3]; Preemergence, 500 g ai/ha) | Plant response rating, Foxtail, Giant ([4]; Postemergence, 125 g ai/ha) | Plant response rating, Foxtail, Giant ([4]; Postemergence, 500 g ai/ha) | Plant response rating, Foxtail, Giant ([4]; Preemergence, 125 g ai/ha) | Plant response rating, Foxtail, Giant ([4]; Preemergence, 500 g ai/ha) | Plant response rating, Morningglory ([5]; Postemergence, 125 g ai/ha) | Plant response rating, Morningglory ([5]; Postemergence, 500 g ai/ha) | Plant response rating, Morningglory ([5]; Preemergence, 125 g ai/ha) | Plant response rating, Morningglory ([5]; Preemergence, 500 g ai/ha) | Plant response rating, Pigweed ([6]; Postemergence, 125 g ai/ha) | Plant response rating, Pigweed ([6]; Postemergence, 500 g ai/ha) | further results |
| --- | --- | --- | --- | --- | --- | --- | --- | --- | --- | --- | --- | --- | --- | --- | --- | --- | --- | --- | --- | --- | --- |
| Cc1cc(=O)n(-c2cccc(C(F)(F)F)c2)nc1Oc1ccnc(C(F)(F)F)c1 [Compound 4] | 10 | 20 | 10 | 30 | 0 | 10 | 30 | 60 | 90 | 100 | 30 | 70 | 70 | 100 | 40 | 70 | 20 | 40 | 100 | 100 | Plant response rating, Barnyardgrass ([1]; Preemergence, 125 g ai/ha): 10; Plant response rating, Barnyardgrass ([1]; Preemergence, 500 g ai/ha): 40; Plant response rating, Pigweed ([6]; Preemergence, 125 g ai/ha): 100; Plant response rating, Pigweed ([6]; Preemergence, 500 g ai/ha): 100; Plant response rating, Velvetleaf ([7]; Postemergence, 125 g ai/ha): 90; Plant response rating, Velvetleaf ([7]; Postemergence, 500 g ai/ha): 100; Plant response rating, Velvetleaf ([7]; Preemergence, 125 g ai/ha): 10; Plant response rating, Velvetleaf ([7]; Preemergence, 500 g ai/ha): 20; Plant response rating, Wheat ([8]; Postemergence, 125 g ai/ha): 10; Plant response rating, Wheat ([8]; Postemergence, 500 g ai/ha): 20; Plant response rating, Wheat ([8]; Preemergence, 125 g ai/ha): 0; Plant response rating, Wheat ([8]; Preemergence, 500 g ai/ha): 10; Plant response rating, Barnyardgrass ([9]; 125 g ai/ha): 20; Plant response rating, Ducksalad ([10]; 125 g ai/ha): 65; Plant response rating, Rice ([11]; 125 g ai/ha): 40; Plant response rating, Sedge, Umbrella ([12]; 125 g ai/ha): 70 |
| O=c1c2c(c(Oc3ccnc(C(F)(F)F)c3)nn1-c1ccc(Cl)cc1)CCCC2 [Compound 7] | 0 | 10 | 10 | 10 | 0 | 0 | 10 | 10 | 0 | 40 | 10 | 10 | 0 | 30 | 10 | 20 | 0 | 0 | 90 | 100 | Plant response rating, Barnyardgrass ([1]; Preemergence, 125 g ai/ha): 0; Plant response rating, Barnyardgrass ([1]; Preemergence, 500 g ai/ha): 40; Plant response rating, Pigweed ([6]; Preemergence, 125 g ai/ha): 20; Plant response rating, Pigweed ([6]; Preemergence, 500 g ai/ha): 50; Plant response rating, Velvetleaf ([7]; Postemergence, 125 g ai/ha): 20; Plant response rating, Velvetleaf ([7]; Postemergence, 500 g ai/ha): 40; Plant response rating, Velvetleaf ([7]; Preemergence, 125 g ai/ha): 0; Plant response rating, Velvetleaf ([7]; Preemergence, 500 g ai/ha): 0; Plant response rating, Wheat ([8]; Postemergence, 125 g ai/ha): 0; Plant response rating, Wheat ([8]; Postemergence, 500 g ai/ha): 10; Plant response rating, Wheat ([8]; Preemergence, 125 g ai/ha): 0; Plant response rating, Wheat ([8]; Preemergence, 500 g ai/ha): 0; Plant response rating, Barnyardgrass ([9]; 125 g ai/ha): 0; Plant response rating, Ducksalad ([10]; 125 g ai/ha): 0; Plant response rating, Rice ([11]; 125 g ai/ha): 0; Plant response rating, Sedge, Umbrella ([12]; 125 g ai/ha): 0 |
| Cc1cc(=O)n(-c2ccc(F)cc2)nc1Cc1cccc(C(F)(F)F)c1 [Compound 8] | 20 | 50 | 20 | 40 | 0 | 0 | 40 | 90 | 90 | 100 | 50 | 90 | 80 | 90 | 80 | 80 | 0 | 0 | 90 | 100 | Plant response rating, Barnyardgrass ([1]; Preemergence, 125 g ai/ha): 20; Plant response rating, Barnyardgrass ([1]; Preemergence, 500 g ai/ha): 80; Plant response rating, Pigweed ([6]; Preemergence, 125 g ai/ha): 90; Plant response rating, Pigweed ([6]; Preemergence, 500 g ai/ha): 100; Plant response rating, Velvetleaf ([7]; Postemergence, 125 g ai/ha): 20; Plant response rating, Velvetleaf ([7]; Postemergence, 500 g ai/ha): 80; Plant response rating, Velvetleaf ([7]; Preemergence, 125 g ai/ha): 0; Plant response rating, Velvetleaf ([7]; Preemergence, 500 g ai/ha): 0; Plant response rating, Wheat ([8]; Postemergence, 125 g ai/ha): 10; Plant response rating, Wheat ([8]; Postemergence, 500 g ai/ha): 20; Plant response rating, Wheat ([8]; Preemergence, 125 g ai/ha): 0; Plant response rating, Wheat ([8]; Preemergence, 500 g ai/ha): 0; Plant response rating, Barnyardgrass ([9]; 250 g ai/ha): 20; Plant response rating, Ducksalad ([10]; 250 g ai/ha): 0; Plant response rating, Rice ([11]; 250 g ai/ha): 25; Plant response rating, Sedge, Umbrella ([12]; 250 g ai/ha): 75 |
| Cc1cc(Oc2cc(C(F)(F)F)ccn2)nn(-c2ccc(F)cc2)c1=O [Compound 9] | 0 | 0 | 0 | 0 | 0 | 0 | 0 | 0 | 0 | 0 | 0 | 0 | 0 | 0 | 0 | 0 | 0 | 0 | 0 | 0 | Plant response rating, Pigweed ([6]; Preemergence, 125 g ai/ha): 0; Plant response rating, Pigweed ([6]; Preemergence, 500 g ai/ha): 0; Plant response rating, Velvetleaf ([7]; Postemergence, 125 g ai/ha): 0; Plant response rating, Velvetleaf ([7]; Postemergence, 500 g ai/ha): 0; Plant response rating, Velvetleaf ([7]; Preemergence, 125 g ai/ha): 0; Plant response rating, Velvetleaf ([7]; Preemergence, 500 g ai/ha): 0; Plant response rating, Wheat ([8]; Postemergence, 125 g ai/ha): 0; Plant response rating, Wheat ([8]; Postemergence, 500 g ai/ha): 0; Plant response rating, Wheat ([8]; Preemergence, 125 g ai/ha): 0; Plant response rating, Wheat ([8]; Preemergence, 500 g ai/ha): 0; Plant response rating, Barnyardgrass ([9]; 250 g ai/ha): 0; Plant response rating, Ducksalad ([10]; 250 g ai/ha): 0; Plant response rating, Rice ([11]; 250 g ai/ha): 0; Plant response rating, Sedge, Umbrella ([12]; 250 g ai/ha): 0 |
| Cc1cc(=O)n(-c2ccc(F)cc2)nc1Oc1cc(C(F)(F)F)ccn1 [Compound 10] | 0 | 0 | 0 | 10 | 0 | 0 | 10 | 20 | 0 | 10 | 0 | 10 | 0 | 20 | 30 | 30 | 0 | 0 | 30 | 60 | Plant response rating, Pigweed ([6]; Preemergence, 125 g ai/ha): 0; Plant response rating, Pigweed ([6]; Preemergence, 500 g ai/ha): 30; Plant response rating, Velvetleaf ([7]; Postemergence, 125 g ai/ha): 0; Plant response rating, Velvetleaf ([7]; Postemergence, 500 g ai/ha): 10; Plant response rating, Velvetleaf ([7]; Preemergence, 125 g ai/ha): 0; Plant response rating, Velvetleaf ([7]; Preemergence, 500 g ai/ha): 0; Plant response rating, Wheat ([8]; Postemergence, 125 g ai/ha): 0; Plant response rating, Wheat ([8]; Postemergence, 500 g ai/ha): 0; Plant response rating, Wheat ([8]; Preemergence, 125 g ai/ha): 0; Plant response rating, Wheat ([8]; Preemergence, 500 g ai/ha): 0; Plant response rating, Barnyardgrass ([9]; 250 g ai/ha): 0; Plant response rating, Ducksalad ([10]; 250 g ai/ha): 0; Plant response rating, Rice ([11]; 250 g ai/ha): 0; Plant response rating, Sedge, Umbrella ([12]; 250 g ai/ha): 0 |
